Reference: article PMC3352081, “Discovery of catalytically active orthologues of the Parkinson's disease kinase PINK1: analysis of substrate specificity and impact of mutations” (Open biology, 2011)
Where “and” joins values, the source holds several entries; their conditions need not be identical. Equal entries are not always repeated.

Molecular target: T1, full-length TcPINK1 (1–570) (Tribolium castaneum, UniProt D6WMX4)
T1 construct: Kinetics of phosphorylation of PINKtide and indicated variants by full-length TcPINK1 (1–570); made in house; host or cells: E. coli BL21 Codon+
T1 sequence (D6WMX4 1-570): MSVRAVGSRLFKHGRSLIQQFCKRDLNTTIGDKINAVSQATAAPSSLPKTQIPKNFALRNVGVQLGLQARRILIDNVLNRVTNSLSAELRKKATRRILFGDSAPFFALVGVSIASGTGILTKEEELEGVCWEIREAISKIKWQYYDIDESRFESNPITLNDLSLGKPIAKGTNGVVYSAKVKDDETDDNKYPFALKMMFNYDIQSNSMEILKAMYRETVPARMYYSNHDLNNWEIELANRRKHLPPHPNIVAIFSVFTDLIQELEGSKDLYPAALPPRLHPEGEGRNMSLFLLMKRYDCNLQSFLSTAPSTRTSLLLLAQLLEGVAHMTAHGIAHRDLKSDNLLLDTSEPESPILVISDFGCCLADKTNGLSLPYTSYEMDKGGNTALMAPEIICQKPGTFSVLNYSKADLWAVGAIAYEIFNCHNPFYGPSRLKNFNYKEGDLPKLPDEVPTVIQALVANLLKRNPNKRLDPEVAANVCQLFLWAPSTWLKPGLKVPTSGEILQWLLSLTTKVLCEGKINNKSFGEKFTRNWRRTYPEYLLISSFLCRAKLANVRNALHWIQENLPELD
Assay: Peptide substrate kinase assay: phosphorylation of PINKtide and variants, [γ-32P] ATP, P81 paper
Assay type: biochemical
Details: phosphorylation of the peptide substrate by full-length TcPINK1 (1–570), kinase 1 µM, 0.1 mM [γ-32P] ATP, 30°C, n.d. = peptide phosphorylated poorly, kinetic values not determinable; for Km: 10 mM MgCl2, 50 mM Tris–HCl pH 7.5, 30 min, nonlinear regression (GraphPad Prism), similar results in at least two experiments; for Vmax: 30 min, 1 U = incorporation of 1 nmol of ATP into substrate, nonlinear regression
Procedure: For assays using peptide substrates, assays were set up in a volume of 50 µl, with all kinases at 1 µM and peptide substrates at the indicated concentrations in 50 mM Tris–HCl (pH 7.5), 0.1 mM EGTA, 10 mM MgCl2, 2 mM dithiothreitol and 0.1 mM [γ-^32P] ATP. Assays were incubated for 30 min at 30°C with shaking at 1200 r.p.m., and terminated by spotting of 40 µl of the reaction mixture onto P81 phosphocellulose paper and washing in 50 mM phosphoric acid. After extensive further washing, incorporation of [γ-^32P] ATP into substrates was quantified by Cerenkov counting. For MBP assays using P81 paper, 5 µg of MBP was used.
One unit of TcPINK1 activity was defined as the amount of enzyme that catalysed the incorporation of 1 nmol of ATP into a given substrate. Km and Vmax values were determined by analysing the phosphorylation of PINKtide and its variants at various concentrations. Km and Vmax values were calculated using the GRAPHPAD PRISM program.

| Substance | Km | Vmax |
| --- | --- | --- |
| KKAIpYRRSPRRR [PINKtide variant at the −5 position] | 435 µM | 8 U mg^−1 |
| KKEIpYRRSPRRR [PINKtide variant at the −5 position] | 192 µM | 6 U mg^−1 |
| KKFIpYRRSPRRR [PINKtide variant at the −5 position] | 163 µM | 3 U mg^−1 |
| KKKIpYRRSPRRR [PINKtide variant at the −5 position] | 165 µM | 2 U mg^−1 |
| KKLIpYRRSPRRR [PINKtide variant at the −5 position] | 381 µM | 5 U mg^−1 |
| KKWIERRSPRRR [PINKtide variant at the −3 position] | 36 µM | 2 U mg^−1 |
| KKWIFRRSPRRR [PINKtide variant at the −3 position] | 63 µM | 2 U mg^−1 |
| KKWIKRRSPRRR [PINKtide variant at the −3 position] | 50 µM | 1 U mg^−1 |
| KKWISRRSPRRR [PINKtide variant at the −3 position] | 81 µM | 3 U mg^−1 |
| KKWITRRSPRRR [PINKtide variant at the −3 position] | 278 µM | 3 U mg^−1 |
| KKWIYRRSPRRR [PINKtide variant at the −3 position] | 30 µM | 3 U mg^−1 |
| KKWIpSRRSPRRR [PINKtide variant at the −3 position] | 117 µM | 3 U mg^−1 |
| KKWIpTRRSPRRR [PINKtide variant at the −3 position] | 970 µM | 8 U mg^−1 |
| KKWIpYRRSPRRR [PINKtide, optimal peptide substrate for TcPINK1, KKWIpYRRSPRRR] | 493 µM and ~500 µM | – |
| KKWIpYRRTPRRR [PINKtide variant, phosphorylated Ser changed to Thr] | 756 µM | 8 U mg^−1 |
